In PubChem BioAssay (NCI):
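Results reflect a 48-hour exposure of cells in 96-well plates to compound at five concentrations. At the GI50, growth is halved. At the TGI there is no net growth.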

Assays:
Test in all cases: NCI anticancer screen, dose series, 48 h
SK-OV-3 ovarian = tested on: SK-OV-3 ovarian
SK-MEL-28 melanoma = tested on: SK-MEL-28 melanoma
UACC-62 melanoma = tested on: UACC-62 melanoma
SF-539 CNS = tested on: SF-539 CNS
SR leukemia = tested on: SR leukemia
UACC-257 melanoma = tested on: UACC-257 melanoma
ACHN renal = tested on: ACHN renal
MALME-3M melanoma = tested on: MALME-3M melanoma
SW-620 colon = tested on: SW-620 colon
OVCAR-5 ovarian = tested on: OVCAR-5 ovarian

Compound	TGI (SK-OV-3 ovarian) [µM]	TGI (SK-MEL-28 melanoma) [µM]	TGI (UACC-62 melanoma) [µM]	TGI (SF-539 CNS) [µM]	TGI (SR leukemia) [µM]	TGI (UACC-257 melanoma) [µM]	TGI (ACHN renal) [µM]	TGI (MALME-3M melanoma) [µM]	TGI (SW-620 colon) [µM]	TGI (OVCAR-5 ovarian) [µM]	GI50 (SK-OV-3 ovarian) [µM]	GI50 (SK-MEL-28 melanoma) [µM]	GI50 (UACC-62 melanoma) [µM]	GI50 (SF-539 CNS) [µM]	GI50 (SR leukemia) [µM]	GI50 (UACC-257 melanoma) [µM]	GI50 (ACHN renal) [µM]	GI50 (MALME-3M melanoma) [µM]	GI50 (SW-620 colon) [nM]	GI50 (OVCAR-5 ovarian) [µM]
O=C(O)C(Cc1ccc(O)c([N+](=O)[O-])c1)N1C(=O)c2ccccc2C1=O (stereo not given)	> 100	> 100	> 100	> 100	> 100	> 100	> 100	> 100	> 100	> 100										
Nc1ccc2c(c1)[O][Sn]([c]1ccccc1)([c]1ccccc1)[O]C2=O	43.8	12.4	16.3	18.8	> 30.4	20	25.4	8.22	8.35	31.1	14.7	5.02	5.94	9.5	3.01	8.14	11.9	3.18	2930	17.2
CC1(C)C(=O)/C(=C\c2ccco2)C[C@]2(C)[C@H]3CC=C4[C@@H]5C[C@](C)(C(=O)O)CC[C@]5(C)CC[C@@]4(C)[C@]3(C)CC[C@@H]12	29.3	31.1	20.3	27.3	> 100	38.9	21.1	29.3	25.9	32.2	14.4	15.1	6.49	13.2	9.85	12.5	6.9	12.7	10200	15.6
CCCCc1cc(O)ccc1O	> 100	> 100	> 100	45.4	> 100	> 100	28.9	65.4	> 100	> 100	64.5	78.7	27.7	11.5	8.26	78.2	15.6	21.6	33800	30
COc1ccc(N=Cc2ccc(N(CCC#N)CCC#N)cc2)cc1	> 100	> 100	> 100	78.7	> 100	> 100	> 100	> 100	> 100	> 100										
CCc1ccc(C2=C(O)C(=O)C(c3ccc(CC)cc3)=C(O)C2=O)cc1	5.66	8.89	3.63	4.45	5.07	11.1	6.28	5.4	10.4	5.88	2.05	2.65	1.64	1.8	1.91	2.95	2.01	1.28	2870	1.61
CCOC(=O)C(=O)Nc1c(C)cccc1CC	> 100	> 100	> 100	> 100	> 100	> 100	> 100	> 100	> 100	> 100										
CCOC(=O)/C=C/c1ccc(C(=O)OCC)[nH]1	> 100	> 100	> 100	42.5	> 100	> 100	> 100	> 100	> 100	> 100	27.8	33.7	5.23	5.91	0.676	11.3	6.88	2.89	1290	19.5
COc1cc(C(C#N)NNC(=O)c2ccccc2O)ccc1O (stereo not given)	> 100	> 100	5.22	8.73	> 100	92.9	> 100	> 100	> 100	> 100										
